Values of other authors in patent US20190321435A1, “ACORUS GRAMINEUS AS A PHARMACOLOGICALLY ACTIVE NATURAL TREATMENT IN THE ADDICTION OF NICOTINE” (priority 2018, published 2019).

Key:
[1] = cited from earlier work
[2] = system: intravenous self-administration (IVSA) of nicotine; conditions: rodents; high-dose (Rauhut et al., 2003); cited from earlier work

Compound: CN1CCc2cccc3c2[C@H]1Cc1ccc(O)c(O)c1-3 [apomorphine]
- adverse effect of intravenous administration ([1]; administered intravenously): crystallization of the drug and lead to thrombus formation and pulmonary embolism
- first-pass hepatic metabolism ([1]; oral administration (swallowing)): significant first-pass hepatic metabolism

Compound: CC(NC(C)(C)C)C(=O)c1cccc(Cl)c1 (stereo not drawn) [bupropion]
- self-administration of nicotine [2]: reduce self-administration of nicotine
